Here are results for 27 molecules from patent US8933074B2, “1,2-disubstituted heterocyclic compounds” (FORUM Pharmaceuticals Inc., priority 2008, dated 2015).

For orientation: IC50 means the point on the concentration scale where inhibition reaches its midpoint.

For one test, the target named is Human PDE10A1 (Homo sapiens, UniProt Q9Y233). Nature of the test: hPDE10A1 enzyme inhibition. The format is biochemical. The following applies: [3H]-cAMP substrate, 20 minutes at 37° C.; read-out: hPDE10A1 IC50 Band. How it is done: 50 μl samples of serially diluted Human PDE10A1 enzyme were incubated with 50 μl of [^3H]-cAMP for 20 minutes (at 37° C.). Reactions were carried out in Greiner 96 deep well 1 ml master-block. The enzyme was diluted in 20 mM Tris HCl pH7.4 and [^3H]-cAMP was diluted in 10 mM MgCl2, 40 mM Tris.HCl pH 7.4. The reaction was terminated by denaturing the PDE enzyme (at 70° C.) after which [^3H]-5′-AMP was converted to [^3H]-adenosine by adding 25 μl snake venom nucleotidase and incubating for 10 minutes (at 37° C.). Adenosine, being neutral, was separated from charged cAMP or AMP by the addition of 200 μl Dowex resin. Samples were shaken for 20 minutes then centrifuged for 3 minutes at 2,500 r.p.m. 50 μl of supernatant was removed and added to 200 μl of MicroScint-20 in white plates (Greiner 96-well Optiplate) and shaken for 30 minutes before reading on Perkin Elmer TopCount Scintillation Counter.
Human PDE10A1, sequence (Q9Y233 1-779 isoform Q9Y233-1): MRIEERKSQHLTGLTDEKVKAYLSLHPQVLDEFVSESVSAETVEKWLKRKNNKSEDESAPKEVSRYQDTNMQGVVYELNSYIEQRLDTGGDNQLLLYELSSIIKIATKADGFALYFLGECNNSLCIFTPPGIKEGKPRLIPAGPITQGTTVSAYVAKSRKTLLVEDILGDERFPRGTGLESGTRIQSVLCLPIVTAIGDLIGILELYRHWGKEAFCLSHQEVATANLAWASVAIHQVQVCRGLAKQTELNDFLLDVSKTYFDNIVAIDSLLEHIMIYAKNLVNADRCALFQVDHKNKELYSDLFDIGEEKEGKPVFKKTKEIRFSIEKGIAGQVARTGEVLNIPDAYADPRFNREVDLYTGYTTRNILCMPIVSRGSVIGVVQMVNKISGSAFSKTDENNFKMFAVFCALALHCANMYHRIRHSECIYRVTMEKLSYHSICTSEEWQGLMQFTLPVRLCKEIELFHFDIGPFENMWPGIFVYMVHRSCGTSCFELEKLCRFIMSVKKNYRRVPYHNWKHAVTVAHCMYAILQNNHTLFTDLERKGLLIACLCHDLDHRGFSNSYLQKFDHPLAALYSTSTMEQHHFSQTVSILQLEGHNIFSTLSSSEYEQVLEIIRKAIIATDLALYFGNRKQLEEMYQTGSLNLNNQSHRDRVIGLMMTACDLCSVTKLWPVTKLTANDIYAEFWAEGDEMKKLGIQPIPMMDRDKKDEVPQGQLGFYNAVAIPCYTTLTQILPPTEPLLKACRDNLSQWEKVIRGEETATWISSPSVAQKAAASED
To check inhibition profile 11 μl of serially diluted inhibitor was added to 50 μl of [^3H]-cAMP and 50 ul of diluted Human PDE10A1 and assay was carried out as in the enzyme activity assay. Data was analysed using Prism software (GraphPad Inc).
On to `CC1(C)OC(c2ccc(OCC3CC3)cc2)=C(c2ccc(OCc3ccc4ccccc4n3)cc2)C1=O` [Example 161, 5-(4-(cyclopropylmethoxy)phenyl)-2,2-dimethyl-4-(4-(quinolin-2-ylmethoxy)phenyl)furan-3(2H)-one], for which the IC50 was above 50 nM.

Take `CC1(C)OC(c2ccc(OCC(F)(F)F)cc2)=C(c2ccc(OCc3ccc4ccccc4n3)cc2)C1=O` [Example 162, 2,2-dimethyl-4-(4-(quinolin-2-ylmethoxy)phenyl)-5-(4-(2,2,2-trifluoroethoxy)phenyl)furan-3(2H)-one]: the 50% inhibitory concentration (IC50) is at most 50 nM.

Turning to `CC1(C)OC(c2ccc([N+](=O)[O-])cc2)=C(c2ccc(OCc3ccc4ccccc4n3)cc2)C1=O` [Example 164, 2,2-Dimethyl-5-(4-nitrophenyl)-4-(4-(quinolin-2-ylmethoxy)phenyl) furan-3(2H)-one], the IC50 is at most 50 nM. With `CC1(C)OC(c2ccc3nonc3c2)=C(c2ccc(OCc3ccc4ccccc4n3)cc2)C1=O` [Example 166, 5-(Benzo[c][1,2,5]oxadiazol-5-yl)-2,2-dimethyl-4-(4-(quinolin-2-ylmethoxy)phenyl)furan-3(2H)-one], the IC50 is at most 50 nM. Regarding `CC1(C)OC(c2ccc3nsnc3c2)=C(c2ccc(OCc3ccc4ccccc4n3)cc2)C1=O` [Example 167, 5-(Benzo[c][1,2,5]thiadiazol-5-yl)-2,2-dimethyl-4-(4-(quinolin-2-ylmethoxy)phenyl)furan-3(2H)-one], the IC50 was at most 50 nM. For `CC1(C)OC(c2ccc(OC(F)F)c(C#N)c2)=C(c2ccc(OCc3ccc4ccccc4n3)cc2)C1=O` [Example 169, 2-(difluoromethoxy)-5-(5,5-dimethyl-4-oxo-3-(4-(quinolin-2-ylmethoxy)phenyl)-4,5-dihydrofuran-2-yl)benzonitrile], the 50% inhibitory concentration (IC50) is at most 50 nM. Same read-out and setting: as for `CC1(C)OC(c2ccc(-n3cnnn3)cc2)=C(c2ccc(OCc3ccc4ccccc4n3)cc2)C1=O` [Example 170, 5-(4-(1H-tetrazol-1-yl)phenyl)-2,2-dimethyl-4-(4-(quinolin-2-ylmethoxy)phenyl)furan-3(2H)-one], the figure is at most 50 nM.

Turning to `CC1(C)OC(c2cscn2)=C(c2ccc(OCc3ccc4ccccc4n3)cc2)C1=O` [Example 174, 2,2-dimethyl-4-(4-(quinolin-2-ylmethoxy)phenyl)-5-(thiazol-4-yl)furan-3(2H)-one], the concentration for half-maximal inhibition (IC50) was at most 50 nM. In the case of `CC1(C)OC(c2ccc(OCc3ccc4ccccc4n3)cc2)=C(c2ccncc2)C1=O` [Example 249, 2,2-dimethyl-4-(pyridin-4-yl)-5-(4-(quinolin-2-ylmethoxy)phenyl) furan-3(2H)-one], the IC50 was at most 50 nM. As to `COc1ccc(C2=C(c3ccc(OCc4ccc5ccccc5n4)cc3)OC(C)(C)C2=O)cc1` [Example 262, 4-(4-methoxyphenyl)-2,2-dimethyl-5-(4-(quinolin-2-ylmethoxy)phenyl)furan-3(2H)-one], the IC50 is at most 50 nM. With `Cc1ccc(COc2ccc(C3=C(c4ccncc4)OC(C)(C)C3=O)cc2)nc1` [Example 808, 2,2-dimethyl-4-(4-((5-methylpyridin-2-yl)methoxy)phenyl)-5-(pyridin-4-yl) furan-3(2H)-one], the IC50 is at most 50 nM. Take `Cc1cnc(COc2ccc(C3=C(c4ccncc4)OC(C)(C)C3=O)cc2)c(C)c1` [Example 809, 4-(4-((3,5-Dimethylpyridin-2-yl)methoxy)phenyl)-2,2-dimethyl-5-(pyridin-4-yl) furan-3(2H)-one]: the IC50 is at most 50 nM. As to `CC1(C)OC(c2ccncc2)=C(c2ccc(OCc3ccc4cc(F)ccc4n3)cc2)C1=O` [Example 810, 4-(4-((6-Fluoroquinolin-2-yl)methoxy)phenyl)-2,2-dimethyl-5-(pyridin-4-yl) furan-3(2H)-one], the IC50 was at most 50 nM. `CC1(C)OC(c2ccccc2)=C(c2ccc(OCc3ccc4ccccc4n3)cc2)C1=O` [Example 811, 2,2-dimethyl-5-phenyl-4-(4-(quinolin-2-ylmethoxy)phenyl)furan-3(2H)-one]: the 50% inhibitory concentration (IC50) is at most 50 nM. As for `CN1C(=O)C(c2ccc(OCc3ccc4ccccc4n3)cc2)=C(N2CCOCC2)C1=O` [Example 812, 1-Methyl-3-morpholino-4-(4-(quinolin-2-ylmethoxy)phenyl)-1H-pyrrole-2,5-dione], the concentration for half-maximal inhibition (IC50) is above 50 nM. Regarding `CC1(C)OC(c2ccc(O)cc2)=C(c2ccc(OCc3ccc4ccccc4n3)cc2)C1=O` [Example 813, 5-(4-hydroxyphenyl)-2,2-dimethyl-4-(4-(quinolin-2-ylmethoxy)phenyl)furan-3(2H)-one], the IC50 was at most 50 nM. For `CC(=O)Nc1ccc(C2=C(c3ccc(OCc4ccc5ccccc5n4)cc3)C(=O)C(C)(C)O2)cc1` [Example 814, N-(4-(5,5-dimethyl-4-oxo-3-(4-(quinolin-2-ylmethoxy)phenyl)-4,5-dihydrofuran-2-yl)phenyl)acetamide], the IC50 was at most 50 nM. Regarding `CC1(C)OC(c2ccc(NS(C)(=O)=O)cc2)=C(c2ccc(OCc3ccc4ccccc4n3)cc2)C1=O` [Example 815, N-(4-(5,5-dimethyl-4-oxo-3-(4-(quinolin-2-ylmethoxy)phenyl)-4,5-dihydrofuran-2-yl)phenyl)methanesulfonamide], the IC50 was at most 50 nM. Turning to `CC1(C)OC(c2ccc(N(S(C)(=O)=O)S(C)(=O)=O)cc2)=C(c2ccc(OCc3ccc4ccccc4n3)cc2)C1=O` [Example 817, N-(4-(5,5-dimethyl-4-oxo-3-(4-(quinolin-2-ylmethoxy)phenyl)-4,5-dihydrofuran-2-yl)phenyl)-N-(methylsulfonyl)methanesulfonamide], the IC50 was at most 50 nM. Consider `Cc1ccc(C2=C(c3ccc(OCc4ccc5ccccc5n4)cc3)C(=O)C(C)(C)O2)cc1` [Example 818, 2,2-dimethyl-4-(4-(quinolin-2-ylmethoxy)phenyl)-5-p-tolylfuran-3(2H)-one], for which the half-inhibitory concentration (IC50) is at most 50 nM.

On to `CC(=O)N(C(C)=O)c1ccc(C2=C(c3ccc(OCc4ccc5ccccc5n4)cc3)C(=O)C(C)(C)O2)cc1` [Example 819, N-acetyl-N-(4-(5,5-dimethyl-4-oxo-3-(4-(quinolin-2-ylmethoxy)phenyl)-4,5-dihydrofuran-2-yl)phenyl)acetamide], for which the IC50 was at most 50 nM. With `CN1C(=O)C(c2ccc(OCc3ccc4ccccc4n3)cc2)=C(N2CCC(=O)CC2)C1=O` [Example 820, 1-Methyl-3-(4-oxopiperidin-1-yl)-4-(4-(quinolin-2-ylmethoxy)phenyl)-1H-pyrrole-2,5-dione], the IC50 was above 50 nM. On the same count and under the same terms, in the case of `CC1(C)OC(c2ccc3ocnc3c2)=C(c2ccc(OCc3ccc4ccccc4n3)cc2)C1=O` [Example 821, 5-(benzo[d]oxazol-5-yl)-2,2-dimethyl-4-(4-(quinolin-2-ylmethoxy)phenyl)furan-3(2H)-one] it was at most 50 nM. Regarding `COc1ccc(-c2c(-c3ccc(OCc4ccc5ccccc5n4)cc3)n(C)c(=O)n2C)cc1` [Example 822, 4-(4-Methoxyphenyl)-1,3-dimethyl-5-(4-(quinolin-2-ylmethoxy)phenyl)-1H-imidazol-2(3H)-one], the half-maximal inhibitory concentration (IC50) was above 50 nM.

Consider `COc1ccc(C2=C(c3ccc(OCc4ccc5ccccc5n4)cc3)C(=O)NC2(C)C)cc1` [Example 823, 4-(4-methoxyphenyl)-5,5-dimethyl-3-(4-(quinolin-2-ylmethoxy)phenyl)-1H-pyrrol-2(5H)-one], for which the IC50 is at most 50 nM. Take `O=C1C(c2ccc(OCc3ccc4ccccc4n3)cc2)=C(c2ccncc2)OC12CCCC2` [Example 824, 2-(pyridin-4-yl)-3-(4-(quinolin-2-ylmethoxy)phenyl)-1-oxaspiro[4.4]non-2-en-4-one]: the half-maximal inhibitory concentration (IC50) was at most 50 nM.

Another test concerns rat.
Test: not given
Particulars: rats; cited from earlier work.
Regarding `COc1ccc(Cc2nccc3cc(OC)c(OC)cc23)cc1OC` [papaverine], the apomorphine induced stereotypes entry was “reduces”, the haloperidol induced catalepsy entry is reported as “increases” and the “rat brain dopamine levels” value is reported as “reduces”.
